Like-named read-outs stand apart in the source and are kept apart here.
Columns and labels:
human plasma kallikrein = human plasma kallikrein (Homo sapiens, UniProt P03952); test: Kallikrein inhibition assay utilizing a quenched AMC peptide substrate (FLINT); assay type: biochemical; settings: 30 min preincubation, 50 μM Z-Gly-Pro-Arg-AMC, 2 nM kallikrein
Method in brief: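 Human plasma kallikrein (2 nM final) was preincubated 30 min at room temperature with compound (11-point 3-fold dilution, top 1 μM, 2% DMSO) in pH 7.5 Tris buffer with CaCl2, BSA and CHAPS. Z-Gly-Pro-Arg-AMC (50 μM final) fluorescence was read at 340/440 nm every 5 min for 30 min. IC50 came from a 4-parameter logistic fit.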

Factor XIa = Factor XIa (Homo sapiens, UniProt P03951); test: Factor XIa inhibition assay utilizing a fluorophore-quencher pair peptide substrate (FLINT); assay type: biochemical; settings: for IC50: read-out: FXIa IC50; for Ki: read-out: FXIa Ki
Sequence of Factor XIa (P03951 388-625 limits assumed): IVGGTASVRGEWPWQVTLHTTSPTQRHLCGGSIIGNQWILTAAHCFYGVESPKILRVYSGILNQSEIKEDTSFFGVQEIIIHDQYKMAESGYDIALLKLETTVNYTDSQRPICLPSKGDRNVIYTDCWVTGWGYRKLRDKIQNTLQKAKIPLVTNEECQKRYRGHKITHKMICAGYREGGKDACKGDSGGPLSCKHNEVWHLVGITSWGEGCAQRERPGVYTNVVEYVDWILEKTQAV
Sequence of Factor XIa (P03951 19-387 partner limits assumed): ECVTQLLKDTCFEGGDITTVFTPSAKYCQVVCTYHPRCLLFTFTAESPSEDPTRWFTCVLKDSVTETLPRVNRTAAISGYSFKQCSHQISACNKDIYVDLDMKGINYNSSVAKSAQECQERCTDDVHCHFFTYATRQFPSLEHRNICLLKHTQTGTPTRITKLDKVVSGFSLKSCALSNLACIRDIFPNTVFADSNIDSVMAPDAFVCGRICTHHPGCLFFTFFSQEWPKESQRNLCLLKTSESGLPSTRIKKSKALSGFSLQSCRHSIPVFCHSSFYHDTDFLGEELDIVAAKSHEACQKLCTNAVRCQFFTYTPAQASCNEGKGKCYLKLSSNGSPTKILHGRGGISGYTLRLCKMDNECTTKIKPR
Method in brief: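 Enzyme preincubated 30 min at room temperature with compound (11-point 3-fold dilution, top 100 nM, 2% DMSO), then 15 μM 5Fam-KLTRAETV-K5Tamra substrate added. Buffer: 50 mM Tris pH 7.5, 100 mM NaCl, 5 mM CaCl2, 0.1 mg/mL BSA, 0.03% CHAPS. Fluorescence (485/520 nm) read kinetically over 30 min; IC50 from 4-parameter logistic fit.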

[1] = 30 min preincubation, 5Fam-KLTRAETV-K5Tamra substrate 15 μM final, kinetic reads
[2] = cells that print μM themselves in the nM column, same assay conditions
[3] = cells that print μM themselves in the nM column

Sequence of human plasma kallikrein (P03952 391-638 limits assumed): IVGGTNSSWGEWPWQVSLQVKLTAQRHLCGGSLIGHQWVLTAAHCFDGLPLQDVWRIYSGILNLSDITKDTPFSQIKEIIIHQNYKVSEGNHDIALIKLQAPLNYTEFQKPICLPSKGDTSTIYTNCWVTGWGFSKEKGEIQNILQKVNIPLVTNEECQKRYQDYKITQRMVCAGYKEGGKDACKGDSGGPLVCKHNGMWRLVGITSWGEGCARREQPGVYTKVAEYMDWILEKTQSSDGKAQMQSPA
Sequence of human plasma kallikrein (P03952 20-390 partner limits assumed): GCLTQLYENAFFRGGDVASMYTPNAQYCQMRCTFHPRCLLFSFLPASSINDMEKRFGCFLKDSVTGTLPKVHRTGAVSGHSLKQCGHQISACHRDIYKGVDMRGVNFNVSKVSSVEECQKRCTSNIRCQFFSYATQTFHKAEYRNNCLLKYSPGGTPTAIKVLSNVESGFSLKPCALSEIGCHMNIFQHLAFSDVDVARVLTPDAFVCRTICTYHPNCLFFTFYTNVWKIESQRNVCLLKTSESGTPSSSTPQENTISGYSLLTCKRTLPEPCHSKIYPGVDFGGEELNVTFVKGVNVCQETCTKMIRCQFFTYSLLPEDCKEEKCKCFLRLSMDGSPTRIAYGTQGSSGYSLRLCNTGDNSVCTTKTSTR

| SMILES | IC50 (human plasma kallikrein) | IC50 (Factor XIa; [1]) | Ki (Factor XIa) | IC50 (Factor XIa; [2]) | Ki (Factor XIa; [3]) |
| --- | --- | --- | --- | --- | --- |
| O=C1NC2(CC2)Cc2ccc(Cl)c(F)c2-c2cc(=O)n3c(c21)CC[C@@H]3c1ncc(-c2ccc3snnc3c2)[nH]1 (stereo in doubt) [Compound 30, (R*)-12-(5-(benzo[d][1,2,3]thiadiazol-5-yl)-1H-imidazol-2-yl)-7-chloro-8-fluoro-13,14-dihydro-2H-spiro[benzo[5,6]azocino[4,3-g]indolizine-3,1′-cyclopropane]-1,10(4H,12H)-dione] | 0.33 µM | 0.0057 µM | 0.0029 µM |  |  |
| O=C1NC2(CC2)Cc2ccc(Cl)c(F)c2-c2cc(=O)n3c(c21)CC[C@H]3c1ncc(-c2ccc3snnc3c2)[nH]1 (stereo in doubt) [Compound 31, (S*)-12-(5-(benzo[d][1,2,3]thiadiazol-5-yl)-1H-imidazol-2-yl)-7-chloro-8-fluoro-13,14-dihydro-2H-spiro[benzo[5,6]azocino[4,3-g]indolizine-3,1′-cyclopropane]-1,10(4H,12H)-dione] | > 10 µM |  | 0.588 µM | 1.18 µM |  |
| Nc1ccc(-c2cnc([C@@H]3CCc4c5c(cc(=O)n43)-c3c(ccc(Cl)c3F)CC3(CCC3)NC5=O)[nH]2)c(F)n1 (stereo in doubt) [Compound 32, (S*)-12-(5-(6-amino-2-fluoropyridin-3-yl)-1H-imidazol-2-yl)-7-chloro-8-fluoro-13,14-dihydro-2H-spiro[benzo[5,6]azocino[4,3-g]indolizine-3,1′-cyclobutane]-1,10(4H,12H)-dione] | 0.23 µM | 0.0007 µM | 0.0004 µM |  |  |
| Nc1ccc(-c2cnc([C@H]3CCc4c5c(cc(=O)n43)-c3c(ccc(Cl)c3F)CC3(CCC3)NC5=O)[nH]2)c(F)n1 (stereo in doubt) [Compound 33, (R*)-12-(5-(6-amino-2-fluoropyridin-3-yl)-1H-imidazol-2-yl)-7-chloro-8-fluoro-13,14-dihydro-2H-spiro[benzo[5,6]azocino[4,3-g]indolizine-3,1′-cyclobutane]-1,10(4H,12H)-dione] | > 10 µM | 0.237 µM | 0.118 µM |  |  |
| Nc1ccc(-c2cnc([C@H]3CCc4c5c(cc(=O)n43)-c3c(ccc(Cl)c3F)CC3(CCCC3)NC5=O)[nH]2)c(F)n1 (stereo in doubt) [Compound 34, (R*)-12-(5-(6-amino-2-fluoropyridin-3-yl)-1H-imidazol-2-yl)-7-chloro-8-fluoro-13,14-dihydro-2H-spiro[benzo[5,6]azocino[4,3-g]indolizine-3,1′-cyclopentane]-1,10(4H,12H)-dione] | 6.21 µM | 0.0337 µM | 0.0169 µM |  |  |
| Nc1ccc(-c2cnc([C@@H]3CCc4c5c(cc(=O)n43)-c3c(ccc(Cl)c3F)CC3(CCCC3)NC5=O)[nH]2)c(F)n1 (stereo in doubt) [Compound 35, (S*)-12-(5-(6-amino-2-fluoropyridin-3-yl)-1H-imidazol-2-yl)-7-chloro-8-fluoro-13,14-dihydro-2H-spiro[benzo[5,6]azocino[4,3-g]indolizine-3,1′-cyclopentane]-1,10(4H,12H)-dione] | 0.09 µM | 0.0004 µM | 0.0002 µM |  |  |
| CN1C(=O)c2c(cc(=O)n3c2CC[C@@H]3c2ncc(-c3ccc(N)nc3F)[nH]2)-c2c(ccc(Cl)c2F)CC12CC2 (stereo in doubt) [Compound 40, (R*)-12-(5-(6-amino-2-fluoropyridin-3-yl)-1H-imidazol-2-yl)-7-chloro-8-fluoro-2-methyl-13,14-dihydro-2H-spiro[benzo[5,6]azocino[4,3-g]indolizine-3,1′-cyclopropane]-1,10(4H,12H)-dione] | > 10 µM |  |  | > 10 µM | > 5 µM |
| CN1C(=O)c2c(cc(=O)n3c2CC[C@H]3c2ncc(-c3ccc(N)nc3F)[nH]2)-c2c(ccc(Cl)c2F)CC12CC2 (stereo in doubt) [Compound 41, (S*)-12-(5-(6-amino-2-fluoropyridin-3-yl)-1H-imidazol-2-yl)-7-chloro-8-fluoro-2-methyl-13,14-dihydro-2H-spiro[benzo[5,6]azocino[4,3-g]indolizine-3,1′-cyclopropane]-1,10(4H,12H)-dione] | > 10 µM | 0.0086 µM | 0.0043 µM |  |  |
| Cn1nncc1-c1cnc([C@@H]2CCc3c4c(cc(=O)n32)-c2c(ccc(Cl)c2F)CC2(CC2)NC4=O)[nH]1 (stereo in doubt) [Compound 42, (S*)-7-chloro-8-fluoro-12-(5-(1-methyl-1H-1,2,3-triazol-5-yl)-1H-imidazol-2-yl)-13,14-dihydro-2H-spiro[benzo[5,6]azocino[4,3-g]indolizine-3,1′-cyclopropane]-1,10(4H,12H)-dione] | > 10 µM | 0.928 µM | 0.464 µM |  |  |
| Cn1nncc1-c1cnc([C@H]2CCc3c4c(cc(=O)n32)-c2c(ccc(Cl)c2F)CC2(CC2)NC4=O)[nH]1 (stereo in doubt) [Compound 43, (R*)-7-chloro-8-fluoro-12-(5-(1-methyl-1H-1,2,3-triazol-5-yl)-1H-imidazol-2-yl)-13,14-dihydro-2H-spiro[benzo[5,6]azocino[4,3-g]indolizine-3,1′-cyclopropane]-1,10(4H,12H)-dione] | > 10 µM |  |  | > 10 µM | > 5 µM |
| Cn1nncc1-c1cnc([C@@H]2CCc3c4c(cc(=O)n32)-c2c(ccc(Cl)c2F)CCNC4=O)[nH]1 (stereo in doubt) [Compound 44, (S*)-7-chloro-8-fluoro-12-(5-(1-methyl-1H-1,2,3-triazol-5-yl)-1H-imidazol-2-yl)-3,4,13,14-tetrahydrobenzo[5,6]azocino[4,3-g]indolizine-1,10(2H,12H)-dione] | > 10 µM |  |  | > 10 µM | > 5 µM |
| Cn1nncc1-c1cnc([C@H]2CCc3c4c(cc(=O)n32)-c2c(ccc(Cl)c2F)CCNC4=O)[nH]1 (stereo in doubt) [Compound 45, (R*)-7-chloro-8-fluoro-12-(5-(1-methyl-1H-1,2,3-triazol-5-yl)-1H-imidazol-2-yl)-3,4,13,14-tetrahydrobenzo[5,6]azocino[4,3-g]indolizine-1,10(2H,12H)-dione] | > 10 µM |  |  | 5.15 µM | 2.58 µM |
| Nc1ccc(-c2cnc([C@@H]3CCc4c5c(cc(=O)n43)-c3c(ccc(Cl)c3F)CCNC5=O)[nH]2)c(F)n1 (stereo in doubt) [Compound 46, (S*)-12-(5-(6-amino-2-fluoropyridin-3-yl)-1H-imidazol-2-yl)-7-chloro-8-fluoro-3,4,13,14-tetrahydrobenzo[5,6]azocino[4,3-g]indolizine-1,10(2H,12H)-dione] | > 10 µM |  |  | 9.15 µM | 4.57 µM |
| Nc1ccc(-c2cnc([C@H]3CCc4c5c(cc(=O)n43)-c3c(ccc(Cl)c3F)CCNC5=O)[nH]2)c(F)n1 (stereo in doubt) [Compound 47, (R*)-12-(5-(6-amino-2-fluoropyridin-3-yl)-1H-imidazol-2-yl)-7-chloro-8-fluoro-3,4,13,14-tetrahydrobenzo[5,6]azocino[4,3-g]indolizine-1,10(2H,12H)-dione] | 0.4 µM | 0.005 µM | 0.0025 µM |  |  |
| Nc1ccc(-c2cnc([C@H]3CCc4c5c(cc(=O)n43)-c3c(ccc(Cl)c3F)CCNC5=O)[nH]2)c(Cl)n1 (stereo in doubt) [Compound 48, (R*)-12-(5-(6-amino-2-chloropyridin-3-yl)-1H-imidazol-2-yl)-7-chloro-8-fluoro-3,4,13,14-tetrahydrobenzo[5,6]azocino[4,3-g]indolizine-1,10(2H,12H)-dione] | 0.21 µM | 0.0023 µM | 0.0012 µM |  |  |
| Nc1ccc(-c2cnc([C@@H]3CCc4c5c(cc(=O)n43)-c3c(ccc(Cl)c3F)CCNC5=O)[nH]2)c(Cl)n1 (stereo in doubt) [Compound 49, (S*)-12-(5-(6-amino-2-chloropyridin-3-yl)-1H-imidazol-2-yl)-7-chloro-8-fluoro-3,4,13,14-tetrahydrobenzo[5,6]azocino[4,3-g]indolizine-1,10(2H,12H)-dione] | > 10 µM |  |  | 2.59 µM | 1.29 µM |
| Cn1cncc1-c1cnc([C@@H]2CCc3c4c(cc(=O)n32)-c2c(ccc(Cl)c2F)CC2(CC2)NC4=O)[nH]1 (stereo in doubt) [Compound 50, (S*)-7-chloro-8-fluoro-12-(3′-methyl-3H,3′H-[4,4′-biimidazol]-2-yl)-13,14-dihydro-2H-spiro[benzo[5,6]azocino[4,3-g]indolizine-3,1′-cyclopropane]-1,10(4H,12H)-dione] | > 20 µM | 0.301 µM | 0.15 µM |  |  |
| Cn1cncc1-c1cnc([C@H]2CCc3c4c(cc(=O)n32)-c2c(ccc(Cl)c2F)CC2(CC2)NC4=O)[nH]1 (stereo in doubt) [Compound 51, (R*)-7-chloro-8-fluoro-12-(3′-methyl-3H,3H′-[4,4′-biimidazol]-2-yl)-13,14-dihydro-2H-spiro[benzo[5,6]azocino[4,3-g]indolizine-3,1′-cyclopropane]-1,10(4H,12H)-dione] | > 10 µM |  |  | > 10 µM | > 5 µM |
| Nc1ccc(-c2cnc([C@H]3CCc4c5c(cc(=O)n43)-c3c(ccc(Cl)c3F)CC3(CC3)NC5=O)[nH]2)c(Cl)n1 (stereo in doubt) [Compound 53, (R*)-12-(5-(6-amino-2-chloropyridin-3-yl)-1H-imidazol-2-yl)-7-chloro-8-fluoro-13,14-dihydro-2H-spiro[benzo[5,6]azocino[4,3-g]indolizine-3,1′-cyclopropane]-1,10(4H,12H)-dione] | > 10 µM | 0.0959 µM | 0.0479 µM |  |  |
